SMILES strings stand for the structures. ≈ marks a conversion by molar mass, not a printed value.

The values below come from ChEMBL document CHEMBL4052765, “Synthesis and antibacterial evaluation of novel 11-O-carbamoyl clarithromycin ketolides” (2017).

Common to all, as to type: functional
For assay [1], the system named is Streptococcus pyogenes. The assay is described as follows: Antibacterial activity against erythromycin-resistant Streptococcus pyogenes R1 after 24 h by NCCLS broth microdilution method. Particulars: R1, 24 h. On the technique in general: Broth dilution looks for growth in wells or tubes with falling amounts of substance.
Assay [2] relates to Staphylococcus aureus. Briefly: Antibacterial activity against erythromycin-susceptible Staphylococcus aureus ATCC 25923 after 24 h by NCCLS broth microdilution method. Particulars: ATCC 25923, 24 h.
Assay [3] relates to Streptococcus pneumoniae. The assay is described as follows: Antibacterial activity against erythromycin-resistant Streptococcus pneumoniae A22072 harboring mef gene after 24 h by NCCLS broth microdilution method. Particulars: A22072, 24 h.
The test system of assay [4] is Streptococcus pneumoniae. The assay is described as follows: Antibacterial activity against erythromycin-resistant Streptococcus pneumoniae B1 harboring erm gene after 24 h by NCCLS broth microdilution method. The following applies: B1, 24 h.
Assay [5] concerns Streptococcus pneumoniae. The assay is described as follows: Antibacterial activity against erythromycin-resistant Streptococcus pneumoniae AB11 harboring harboring mef and erm gene after 24 h by NCCLS broth microdilution method. Particulars: AB11, 24 h.
The test system of assay [6] is Pseudomonas aeruginosa. The assay is described as follows: Antibacterial activity against penicillin-susceptible Pseudomonas aeruginosa ATCC 27853 after 24 h by NCCLS broth microdilution method. The following applies: ATCC 27853, 24 h.
Assay [7] concerns Staphylococcus aureus. The assay is described as follows: Antibacterial activity against […] Staphylococcus aureus ATCC 29213 after 24 h by NCCLS broth microdilution method. Particulars: ATCC 29213, 24 h.
Assay [8] relates to Escherichia coli. The assay is described as follows: Antibacterial activity against penicillin-susceptible Escherichia coli ATCC 25922 after 24 h by NCCLS broth microdilution method. Particulars: ATCC 25922, 24 h.
Assay [9] deals with Bacillus subtilis. Briefly: Antibacterial activity against penicillin-susceptible Bacillus subtilis ATCC 9372 after 24 h by NCCLS broth microdilution method. The following applies: ATCC 9372, 24 h.
The subject of assay [10] is Streptococcus pyogenes. The assay is described as follows: Antibacterial activity against erythromycin-susceptible Streptococcus pyogenes after 24 h by NCCLS broth microdilution method.

As for `CC[C@H]1OC(=O)[C@H](C)C(=O)[C@H](C)[C@@H](O[C@@H]2O[C@H](C)C[C@H](N(C)C)[C@H]2O)[C@](C)(OC)C[C@@H](C)C(=O)[C@H](C)[C@@H](OC(=O)NCCNC(=O)c2ccc(C(C)(C)C)cc2)[C@]1(C)O`, the MIC in assay [1] was 128 µg/mL (≈ 153 µM); in assay [2], 128 µg/mL (≈ 153 µM); in assay [3], 4 µg/mL (≈ 4.8 µM); in [4] it was 128 µg/mL (≈ 153 µM); in assay [5], 128 µg/mL (≈ 153 µM); in assay [6], over 128 µg/mL. Besides, the MIC in [7] was 128 µg/mL (≈ 153 µM); in [8], over 128 µg/mL; in assay [9] it was 4 µg/mL (≈ 4.8 µM); in assay [10] it was 16 µg/mL (≈ 19.2 µM).
Regarding `CC[C@H]1OC(=O)[C@H](C)C(=O)[C@H](C)[C@@H](O[C@@H]2O[C@H](C)C[C@H](N(C)C)[C@H]2O)[C@](C)(OC)C[C@@H](C)C(=O)[C@H](C)[C@@H](OC(=O)NCCNC(=O)/C=C/c2ccccc2)[C@]1(C)O`, the MIC is over 128 µg/mL in [1]; 32 µg/mL (≈ 39.8 µM) in [2]; 4 µg/mL (≈ 4.98 µM) in assay [3]; 128 µg/mL (≈ 159 µM) in assay [4]; 64 µg/mL (≈ 79.6 µM) in assay [5]; over 128 µg/mL in assay [6]. The MIC in [7] was 128 µg/mL (≈ 159 µM); in [8], over 128 µg/mL; in assay [9], 8 µg/mL (≈ 9.95 µM); in assay [10] it was 4 µg/mL (≈ 4.98 µM).
`CC[C@H]1OC(=O)[C@H](C)C(=O)[C@H](C)[C@@H](O[C@@H]2O[C@H](C)C[C@H](N(C)C)[C@H]2O)[C@](C)(OC)C[C@@H](C)C(=O)[C@H](C)[C@@H](OC(=O)NCCNC(=O)c2ccc(OC)cc2)[C@]1(C)O`: the MIC was over 128 µg/mL in [1]; 32 µg/mL (≈ 39.6 µM) in [2]; 1 µg/mL (≈ 1.24 µM) in assay [3]; 128 µg/mL (≈ 158 µM) in assay [4]; 64 µg/mL (≈ 79.2 µM) in [5]; over 128 µg/mL in assay [6]. The MIC in assay [7] was 128 µg/mL (≈ 158 µM); in assay [8], over 128 µg/mL; in [9], 4 µg/mL (≈ 4.95 µM); in [10] it was 2 µg/mL (≈ 2.48 µM).
Regarding `CC[C@H]1OC(=O)[C@H](C)C(=O)[C@H](C)[C@@H](O[C@@H]2O[C@H](C)C[C@H](N(C)C)[C@H]2O)[C@](C)(OC)C[C@@H](C)C(=O)[C@H](C)[C@@H](OC(=O)NCCNC(=O)c2cccc(C)c2)[C@]1(C)O`, the MIC was over 128 µg/mL in assay [1]; 32 µg/mL (≈ 40.4 µM) in assay [2]; 8 µg/mL (≈ 10.1 µM) in assay [3]; 128 µg/mL (≈ 162 µM) in [4]; 64 µg/mL (≈ 80.8 µM) in assay [5]; over 128 µg/mL in [6]. For the same molecule, the MIC in assay [7] was 128 µg/mL (≈ 162 µM); in [8], over 128 µg/mL; in assay [9] it was 8 µg/mL (≈ 10.1 µM); in assay [10], 4 µg/mL (≈ 5.05 µM).
In the case of `CC[C@H]1OC(=O)[C@H](C)C(=O)[C@H](C)[C@@H](O[C@@H]2O[C@H](C)C[C@H](N(C)C)[C@H]2O)[C@](C)(OC)C[C@@H](C)C(=O)[C@H](C)[C@@H](OC(=O)NCCNC(=O)c2ccc(Br)cc2)[C@]1(C)O`, the MIC is over 128 µg/mL in [1]; 8 µg/mL (≈ 9.34 µM) in assay [2]; 1 µg/mL (≈ 1.17 µM) in [3]; 128 µg/mL (≈ 149 µM) in assay [4]; 64 µg/mL (≈ 74.7 µM) in [5]; 128 µg/mL (≈ 149 µM) in [6]. Besides, the minimal inhibitory concentration (MIC) is 128 µg/mL (≈ 149 µM) in assay [7], over 128 µg/mL in assay [8], 1 µg/mL (≈ 1.17 µM) in assay [9] and 2 µg/mL (≈ 2.33 µM) in assay [10].
With `CC[C@H]1OC(=O)[C@H](C)C(=O)[C@H](C)[C@@H](O[C@@H]2O[C@H](C)C[C@H](N(C)C)[C@H]2O)[C@](C)(OC)C[C@@H](C)C(=O)[C@H](C)[C@@H](OC(=O)NCCNC(=O)c2ccc(C)cc2)[C@]1(C)O`, the MIC in assay [1] is over 128 µg/mL; in [2], 32 µg/mL (≈ 40.4 µM); in assay [3], 2 µg/mL (≈ 2.53 µM); in assay [4], 128 µg/mL (≈ 162 µM); in [5], 64 µg/mL (≈ 80.8 µM); in assay [6], over 128 µg/mL. Moreover, the MIC was 128 µg/mL (≈ 162 µM) in assay [7], over 128 µg/mL in [8], 2 µg/mL (≈ 2.53 µM) in assay [9] and 4 µg/mL (≈ 5.05 µM) in assay [10].
Turning to `CC[C@H]1OC(=O)[C@H](C)C(=O)[C@H](C)[C@@H](O[C@@H]2O[C@H](C)C[C@H](N(C)C)[C@H]2O)[C@](C)(OC)C[C@@H](C)C(=O)[C@H](C)[C@@H](OC(=O)NCCNC(=O)c2ccccc2)[C@]1(C)O`, the MIC is over 128 µg/mL in [1]; 64 µg/mL (≈ 82.3 µM) in assay [2]; 4 µg/mL (≈ 5.14 µM) in assay [3]; 128 µg/mL (≈ 165 µM) in [4]; 128 µg/mL (≈ 165 µM) in assay [5]; over 128 µg/mL in assay [6]. Besides, the MIC in assay [7] is 128 µg/mL (≈ 165 µM); in [8] it was over 128 µg/mL; in assay [9], 4 µg/mL (≈ 5.14 µM); in assay [10], 4 µg/mL (≈ 5.14 µM).
On to `CC[C@H]1OC(=O)[C@H](C)C(=O)[C@H](C)[C@@H](O[C@@H]2O[C@H](C)C[C@H](N(C)C)[C@H]2O)[C@](C)(OC)C[C@@H](C)C(=O)[C@H](C)[C@@H](OC(=O)NCCNC(=O)c2ccc(F)cc2)[C@]1(C)O`, for which the MIC in assay [1] was over 128 µg/mL; in assay [2] it was 32 µg/mL (≈ 40.2 µM); in assay [3] it was 2 µg/mL (≈ 2.51 µM); in assay [4], 128 µg/mL (≈ 161 µM); in assay [5], 64 µg/mL (≈ 80.4 µM); in assay [6], 128 µg/mL (≈ 161 µM). Besides, the minimal inhibitory concentration (MIC) is 128 µg/mL (≈ 161 µM) in assay [7], over 128 µg/mL in [8], 1 µg/mL (≈ 1.26 µM) in assay [9] and 2 µg/mL (≈ 2.51 µM) in assay [10].
With `CC[C@H]1OC(=O)[C@H](C)C(=O)[C@H](C)[C@@H](O[C@@H]2O[C@H](C)C[C@H](N(C)C)[C@H]2O)[C@](C)(OC)C[C@@H](C)C(=O)[C@H](C)[C@@H](OC(=O)NCCNC(=O)c2ccc([N+](=O)[O-])cc2)[C@]1(C)O`, the MIC in assay [1] was over 128 µg/mL; in assay [2], 16 µg/mL (≈ 19.4 µM); in assay [3], 1 µg/mL (≈ 1.22 µM); in assay [4] it was 128 µg/mL (≈ 156 µM); in assay [5], 64 µg/mL (≈ 77.8 µM); in assay [6], 128 µg/mL (≈ 156 µM). In addition, the MIC in assay [7] was 128 µg/mL (≈ 156 µM); in [8] it was over 128 µg/mL; in assay [9], 1 µg/mL (≈ 1.22 µM); in [10], 0.25 µg/mL (≈ 0.304 µM).
Take `CC[C@H]1OC(=O)[C@H](C)C(=O)[C@H](C)[C@@H](O[C@@H]2O[C@H](C)C[C@H](N(C)C)[C@H]2O)[C@](C)(OC)C[C@@H](C)C(=O)[C@H](C)[C@@H](OC(=O)NCCNC(=O)c2ccccc2O)[C@]1(C)O`: the MIC in assay [1] is over 128 µg/mL; in [2] it was 32 µg/mL (≈ 40.3 µM); in assay [3], 4 µg/mL (≈ 5.04 µM); in [4], 128 µg/mL (≈ 161 µM); in assay [5], 64 µg/mL (≈ 80.6 µM); in assay [6], 128 µg/mL (≈ 161 µM). Moreover, the MIC in [7] was 128 µg/mL (≈ 161 µM); in assay [8], over 128 µg/mL; in assay [9], 8 µg/mL (≈ 10.1 µM); in assay [10] it was 4 µg/mL (≈ 5.04 µM).
With `CC[C@H]1OC(=O)[C@H](C)C(=O)[C@H](C)[C@@H](O[C@@H]2O[C@H](C)C[C@H](N(C)C)[C@H]2O)[C@](C)(OC)C[C@@H](C)C(=O)[C@H](C)[C@@H](OC(=O)NCCNC(=O)c2cccc(O)c2)[C@]1(C)O`, the MIC was over 128 µg/mL in assay [1]; 128 µg/mL (≈ 161 µM) in assay [2]; 16 µg/mL (≈ 20.2 µM) in [3]; 128 µg/mL (≈ 161 µM) in assay [4]; 64 µg/mL (≈ 80.6 µM) in assay [5]; over 128 µg/mL in [6]. Besides, the MIC in assay [7] was 128 µg/mL (≈ 161 µM); in [8], over 128 µg/mL; in [9] it was 16 µg/mL (≈ 20.2 µM); in assay [10], 2 µg/mL (≈ 2.52 µM).

One may read the MIC as the least concentration at which growth counts as inhibited. A low value points to inhibition by little substance.
